Laboratory results as given in paper PMC10245910 (bioRxiv, 2023).

Experiments:
BesD [1] = target: T1, BesD (Streptantibioticus cattleyicolor, UniProt G8XHD5); assay: UV-Vis MLCT band; type: binding; conditions: Fe(II) added; co-substrate
T1 sequence (G8XHD5 1-242): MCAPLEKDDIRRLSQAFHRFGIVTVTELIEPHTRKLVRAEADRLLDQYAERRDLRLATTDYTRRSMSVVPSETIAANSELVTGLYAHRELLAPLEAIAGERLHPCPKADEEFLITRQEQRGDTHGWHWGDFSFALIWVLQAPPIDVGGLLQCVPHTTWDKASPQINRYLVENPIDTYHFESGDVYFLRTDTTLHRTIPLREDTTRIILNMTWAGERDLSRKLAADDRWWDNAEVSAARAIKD

BesD [2] = target: T1, BesD; assay: UV-Vis MLCT shift; type: biochemical; conditions: BesD-Fe-2OG complex with lysine; anaerobic UV-Vis
BesD [3] = target: T1, BesD; assay: UV-Vis MLCT shift; type: biochemical; conditions: BesD-Fe-2OG complex with lysine; anaerobic UV-Vis; remark: listed apart in the source
BesD [4] = target: T1, BesD; assay: biochemical

SMILES: O=C(O)CCC(=O)C(=O)O [2-oxoglutarate]
- UV-Vis MLCT band (BesD [1]): Upon the addition of Fe^II and 2OG to BesD, an MLCT band forms

SMILES: [N-]=[N+]=[N-] [azide]
- UV-Vis MLCT shift; UPLC-MS/MS of azidation product (BesD [2]): perturbations of the MLCT band with azide and bromide are minimal until the addition of lysine

SMILES: Br [bromide]
- UV-Vis MLCT shift; UPLC-MS/MS of bromination product (BesD [3]): perturbations of the MLCT band with azide and bromide are minimal until the addition of lysine

SMILES: NCCCC[C@H](N)C(=O)O [lysine]
- Kd (BesD [4]): 50 µM
